pIC50: −log10 of the molar value. In brackets after ≈: the same amount, converted by molar mass. Where two headings read alike, the source gives them in different places.
How the values were obtained:
[1] = Toxicity in treated gerbils (deaths or significant weight loss); type: in vivo; parameters: key: +: Toxicity is indicated for those groups having one or more animals expired; conditions: single oral dose of 50 mg/kg, groups of 3
Experimental: In this evaluation, gerbils are infected with Trichostrongylus columbriformis infective larvae at a concentration of approximately 800 L3/mL. Larvae for gerbil infections are cultured from feces from sheep previously infected with T. colubriformis. One week post infection, test compounds are administered by gavage as a single oral dose of 50 mg/kg of body weight. For each group of 3 gerbils, 10 mg of test compound are dissolved in 2 mL of PEG 400:DMSO (1:2 v/v) and each animal is administered the test solution at a rate of 0.1 mL/10 g of body weight. […] All animals are observed daily for morbidity and mortality. Four days post-treatment, all animals are weighed and necropsied. Worm counts are conducted with the use of stereoscopes and counters.

[2] = test system: Trichostrongylus columbriformis; assay: In vivo efficacy against T. colubriformis in infected gerbils; conditions: gerbils infected with T. colubriformis; single oral dose of 50 mg/kg by gavage; worm counts four days post-treatment; % mortality as compared to negative control
Summary of the method: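 Gerbils infected with ~800 L3/mL larvae were treated one week later by gavage with a single 50 mg/kg oral dose in PEG 400:DMSO (1:2 v/v), 3 animals per group. Necropsy four days post-treatment, with worms counted under stereoscopes.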

[3] = test system: C. elegans; assay: Efficacy against nematodes (C. elegans motility rating); parameters: key: 0: no effect; 7: reduced movement in 24 h; 8: dead in 24 h; 9: dead in 4 h; conditions: dose 100 ppm, observations at 4 h and 24 h postimmersion
Summary of the method: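 Mixed-stage C. elegans (~50 per well, L1 to adult) in M9 buffer exposed to test compound at 100 ppm, 150 ppm or 200 μM final. Motility of larvae and adults scored under dissecting microscope at 4 h and 24 h.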

[4] = molecular target: E. coli Uridine-diphosphate-N-acetylmuramoyl-L-alanine: D-glutamate liease, MurD (Escherichia coli, UniProt P14900); assay: biochemical; conditions: (E) E. coli enzyme
Summary of the method: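 Compound working solutions reach 100 μg/mL in 50 mM Tris/HCl (pH 8.5) after dilution of 10 mg/mL DMSO stocks; final level in the well not given here. Reaction buffer finals: 2 mM ATP, 50 mM MgCl2, 83 mM Tris/HCl, pH 8.0.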

[5] = test system: staphylococci; assay: Minimum inhibitory concentration, microdilution broth method, staphylococci; type: cell-based; conditions: Mueller-Hinton broth, 18-22 hours at 35° C.; for MIC: Staphylococcus aureus
Summary of the method: (§1)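 Organisms, including methicillin-, penicillin- and/or vancomycin-resistant clinical isolates, tested by NCCLS M7-A5 microdilution. Medium: Mueller-Hinton broth for staphylococci and enterococci, supplemented with 5% lysed horse blood for streptococci.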

[6] = test system: enterococci; assay: Minimum inhibitory concentration, microdilution broth method, enterococci; type: cell-based; conditions: Mueller-Hinton broth, 18-22 hours at 35° C.; for MIC: Enterococcus faecalis
Summary of the method: as §1

[7] = molecular target: E. coli Enopyruvyl-UPD-N-acetylglucosamine reductase, Mur B (Escherichia coli, UniProt P08373); assay: biochemical; conditions: (E) E. coli enzyme; read-out: MurB IC50 (converted)
[8] = molecular target: E. coli Uridine-diphosphate-N-acetvimuramoyl: L-alanine lipase, MurC (Escherichia coli, UniProt P17952); assay: Inhibitory activity against MurC (E. coli); type: biochemical; conditions: (E) E. coli enzyme; read-out: MurC IC50 (converted)
[9] = molecular target: E. coli UDP-N-acetylglucosamine enolpyruvoyl transferase, MurA (Escherichia coli, UniProt P0A749); assay: biochemical; conditions: (E) E. coli enzyme
Summary of the method: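 Enzyme in 50 mM Tris/HCl pH 8.0 with 5 mM DTT and 20% glycerol was pre-incubated 10 min at 37° C with test compound in DMSO/water. Tris/BME and assay buffer then started the 1 hr, 37° C reaction, with a baseline 340 nm reading taken at start. Stop solution followed, and colour developed 30 minutes.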

[10] = test system: Streptococci; assay: Minimum inhibitory concentration, microdilution broth method, streptococci; type: cell-based; conditions: Mueller-Hinton broth with 5% horse blood, 18-22 hours at 35° C.; for MIC: S. pneumo GC 1894
Summary of the method: as §1

[11] = molecular target: T1, S. aureus Uridine-diphosphate-N-acetylmuramoyl-L-alanine: D-glutamate liease, MurD (Staphylococcus aureus, UniProt Q2FZ92); assay: biochemical; conditions: (S) S. aureus enzyme
T1 sequence (Q2FZ92 1-449): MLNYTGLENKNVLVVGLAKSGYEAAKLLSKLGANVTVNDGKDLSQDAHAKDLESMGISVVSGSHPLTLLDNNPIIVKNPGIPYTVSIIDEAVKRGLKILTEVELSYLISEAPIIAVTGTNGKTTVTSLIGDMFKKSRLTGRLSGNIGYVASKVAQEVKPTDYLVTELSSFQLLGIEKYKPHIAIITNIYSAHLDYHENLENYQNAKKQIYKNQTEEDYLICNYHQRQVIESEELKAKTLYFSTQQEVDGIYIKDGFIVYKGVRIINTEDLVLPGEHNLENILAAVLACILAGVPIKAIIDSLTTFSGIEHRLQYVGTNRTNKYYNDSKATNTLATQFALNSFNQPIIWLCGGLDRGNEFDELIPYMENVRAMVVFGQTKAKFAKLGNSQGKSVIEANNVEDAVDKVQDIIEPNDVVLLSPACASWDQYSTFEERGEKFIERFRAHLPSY
Summary of the method: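 Test solutions, 10 mg/mL stocks in DMSO, were brought to 100 μg/mL with 50 mM Tris/HCl (pH 8.5). Their inhibition of MurD, the enzyme of the fourth cell wall biosynthesis step, was measured.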

[12] = S. aureus GC 1131, read-out: MIC S. aureus GC 1131
[13] = S. aureus GC 4543, read-out: MIC S. aureus GC 4543
[14] = E. faecalis GC 2242, read-out: MIC E. faecalis GC 2242
[15] = E. faecalis GC 4555, read-out: MIC E. faecalis GC 4555

E. coli Uridine-diphosphate-N-acetylmuramoyl-L-alanine: D-glutamate liease, MurD, sequence (P14900 whole entry): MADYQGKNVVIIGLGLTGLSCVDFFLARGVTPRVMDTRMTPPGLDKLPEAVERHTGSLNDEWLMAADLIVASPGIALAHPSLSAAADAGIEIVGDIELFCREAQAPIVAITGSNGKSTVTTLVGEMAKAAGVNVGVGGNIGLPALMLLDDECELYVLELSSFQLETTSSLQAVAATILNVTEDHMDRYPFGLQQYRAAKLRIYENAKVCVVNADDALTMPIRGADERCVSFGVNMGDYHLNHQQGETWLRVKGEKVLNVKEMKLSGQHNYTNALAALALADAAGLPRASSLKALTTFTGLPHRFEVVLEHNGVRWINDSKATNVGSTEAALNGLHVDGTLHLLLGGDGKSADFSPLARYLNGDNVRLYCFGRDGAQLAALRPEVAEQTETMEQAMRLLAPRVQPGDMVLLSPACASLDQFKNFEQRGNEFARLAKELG
E. coli UDP-N-acetylglucosamine enolpyruvoyl transferase, MurA, sequence (P0A749 whole entry): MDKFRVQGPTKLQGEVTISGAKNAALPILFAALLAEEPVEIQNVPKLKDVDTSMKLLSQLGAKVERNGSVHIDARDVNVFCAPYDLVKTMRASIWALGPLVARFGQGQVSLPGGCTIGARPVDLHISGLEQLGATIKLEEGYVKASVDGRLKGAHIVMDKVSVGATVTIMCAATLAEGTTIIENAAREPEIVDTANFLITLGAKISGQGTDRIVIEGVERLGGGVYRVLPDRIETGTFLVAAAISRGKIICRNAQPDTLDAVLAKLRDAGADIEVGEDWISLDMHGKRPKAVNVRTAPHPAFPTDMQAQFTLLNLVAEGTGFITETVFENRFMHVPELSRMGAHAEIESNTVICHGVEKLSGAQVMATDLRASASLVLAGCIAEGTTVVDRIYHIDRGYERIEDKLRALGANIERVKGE
E. coli Enopyruvyl-UPD-N-acetylglucosamine reductase, Mur B, sequence (P08373 whole entry): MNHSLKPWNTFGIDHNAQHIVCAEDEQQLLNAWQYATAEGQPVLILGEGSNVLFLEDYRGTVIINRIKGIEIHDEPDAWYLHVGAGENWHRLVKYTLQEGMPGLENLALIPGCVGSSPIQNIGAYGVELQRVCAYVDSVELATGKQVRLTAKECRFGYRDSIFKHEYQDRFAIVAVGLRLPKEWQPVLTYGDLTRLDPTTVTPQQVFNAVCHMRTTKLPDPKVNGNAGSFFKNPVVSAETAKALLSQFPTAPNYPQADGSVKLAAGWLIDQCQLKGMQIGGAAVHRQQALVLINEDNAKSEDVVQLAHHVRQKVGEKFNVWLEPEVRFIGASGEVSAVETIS
E. coli Uridine-diphosphate-N-acetvimuramoyl: L-alanine lipase, MurC, sequence (P17952 whole entry): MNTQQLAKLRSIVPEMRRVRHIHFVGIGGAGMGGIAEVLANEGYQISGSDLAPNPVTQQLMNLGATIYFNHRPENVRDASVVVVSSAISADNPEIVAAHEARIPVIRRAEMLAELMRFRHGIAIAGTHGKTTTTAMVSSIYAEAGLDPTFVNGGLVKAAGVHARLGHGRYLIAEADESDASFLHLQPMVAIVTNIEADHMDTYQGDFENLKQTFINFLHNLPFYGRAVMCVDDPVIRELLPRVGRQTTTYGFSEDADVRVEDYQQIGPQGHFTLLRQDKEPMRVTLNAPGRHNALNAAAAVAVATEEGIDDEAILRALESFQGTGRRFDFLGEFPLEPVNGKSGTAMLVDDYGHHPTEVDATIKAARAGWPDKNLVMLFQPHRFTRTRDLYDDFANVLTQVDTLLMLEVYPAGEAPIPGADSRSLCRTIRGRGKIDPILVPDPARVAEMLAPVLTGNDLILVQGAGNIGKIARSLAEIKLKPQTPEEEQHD

| Compound | Toxicity [1] | Mortality [2] [%] | Rating [3] | melting point | pIC50 [4] | MIC [5, 12] [µg/mL] | MIC [5, 13] [µg/mL] | MIC [6, 14] [µg/mL] | MIC [6, 15] [µg/mL] | IC50 [7] [µM] | IC50 [8] [µM] | pIC50 [9] | MIC [10] [µg/mL] | pIC50 [11] | MIC S. aureus GC 1131 ([5]; S. aureus GC 1131) [µg/mL] | MIC S. aureus GC 4543 ([5]; S. aureus GC 4543) [µg/mL] | MIC E. faecalis GC 2242 ([6]; E. faecalis GC 2242) [µg/mL] | MIC E. faecalis GC 4555 ([6]; E. faecalis GC 4555) [µg/mL] | MIC S. pneumo GC 1894 [10] [µg/mL] |
| --- | --- | --- | --- | --- | --- | --- | --- | --- | --- | --- | --- | --- | --- | --- | --- | --- | --- | --- | --- |
| COc1cc(/C=C2\OC(=O)C(c3cccc(Cl)c3)=C2O)ccc1-c1ccccc1C(F)(F)F | + | 29.50 |  |  |  |  |  |  |  |  |  |  |  |  |  |  |  |  |  |
| O=C1OC(=Cc2ccc(F)cc2)C(O)=C1c1ccc(C(F)(F)F)cc1 (mixture of isomers) [R=H; R1=4-CF3—C6H4**; R2=4-F—C6H4] | + | 95.80 | 9 |  |  |  |  |  |  |  |  |  |  |  |  |  |  |  |  |
| COc1ccc(C2=C(O)/C(=C/c3ccc4ccccc4c3)OC2=O)cc1 [Example 7] |  |  |  | 257 to 258.5 °C | < 4.14 | 32 (≈ 92.9 µM) | 64 (≈ 186 µM) | 32 (≈ 92.9 µM) | 64 (≈ 186 µM) | 61 | 37.8 | < 4.14 | 2 (≈ 5.81 µM) |  |  |  |  |  |  |
| COc1ccc(C2=C(O)/C(=C/c3ccc(-c4ccccc4)cc3)OC2=O)cc1 [Example 9] |  |  |  | 266 to 269 °C | < 4.17 | 32 (≈ 86.4 µM) | > 128 | 8 (≈ 21.6 µM) | 64 (≈ 173 µM) | 43.2 | > 67.5 | < 4.17 | < 0.125 |  |  |  |  |  |  |
| Cc1ccc(/C=C2\OC(=O)C(c3cccc(C(F)(F)F)c3)=C2O)s1 [Example 12] |  |  |  | 249 to 251 °C | < 4.15 | 64 (≈ 182 µM) | 64 (≈ 182 µM) | 64 (≈ 182 µM) | > 128 | > 71 | 42.6 | < 4.15 | 2 (≈ 5.68 µM) |  |  |  |  |  |  |
| Cc1ccc(/C=C2\OC(=O)C(c3ccc4ccccc4c3)=C2O)s1 [Example 41] |  |  |  | 144 to 145 °C (dec.) | < 4.13 | 32 (≈ 95.7 µM) | 64 (≈ 191 µM) | 32 (≈ 95.7 µM) | 64 (≈ 191 µM) | > 74.8 | 38.9 | < 4.13 | 32 (≈ 95.7 µM) |  |  |  |  |  |  |
| O=C1O/C(=C\c2cccc3ccccc23)C(O)=C1c1ccc2ccccc2c1 [Example 44] |  |  |  | 205 to 207 °C | < 4.16 | 4 (≈ 11 µM) | 8 (≈ 22 µM) | 8 (≈ 22 µM) | 16 (≈ 43.9 µM) | 19.2 | 16.5 | 4.31 | 1 (≈ 2.74 µM) |  |  |  |  |  |  |
| O=C1O/C(=C\c2ccc(Cl)cc2)C(O)=C1c1cccc2ccccc12 [Example 46] |  |  |  | 235 to 237 °C | < 4.14 | 64 (≈ 183 µM) | 32 (≈ 91.7 µM) | 64 (≈ 183 µM) | 32 (≈ 91.7 µM) | > 71.7 | 45.9 | < 4.14 | 16 (≈ 45.9 µM) |  |  |  |  |  |  |
| O=C1O/C(=C\c2ccc(-c3ccccc3)cc2)C(O)=C1c1ccc(Cl)cc1Cl [Example 65] |  |  |  | 252 to 256 °C | 4.23 | 8 (≈ 19.5 µM) | 8 (≈ 19.5 µM) | 4 (≈ 9.77 µM) | 16 (≈ 39.1 µM) | 24.4 | 7.33 | < 4.21 | < 0.125 | 4.44 |  |  |  |  |  |
| O=C1O/C(=C\c2ccc(-c3ccccc3)cc2)C(O)=C1c1ccc(Cl)c(Cl)c1 [Example 66] |  |  |  | 265 to 269 °C | 4.29 | 2 (≈ 4.89 µM) | 1 (≈ 2.44 µM) | 0.5 (≈ 1.22 µM) | 2 (≈ 4.89 µM) | 4.89 | 7.33 | 5.13 | < 0.125 | 4.91 |  |  |  |  |  |
| O=C1O/C(=C\c2ccc(-c3ccccc3)cc2)C(O)=C1c1cc(Cl)cc(Cl)c1 [Example 68] |  |  |  | 232 to 235 °C | 4.57 |  |  |  |  | 7.33 | 22 | 5.13 |  | 4.57 | 2 (≈ 4.89 µM) | 2 (≈ 4.89 µM) | 1 (≈ 2.44 µM) | 2 (≈ 4.89 µM) | <0.125 |
| O=C1O/C(=C\c2ccc3ccccc3c2)C(O)=C1c1ccc(-c2ccccc2)cc1 [Example 103] |  |  |  | 266 to 270 °C | < 4.19 | > 128 | 64 (≈ 164 µM) | 32 (≈ 82 µM) | 64 (≈ 164 µM) | 15.4 | 41 | < 4.19 | 0.5 (≈ 1.28 µM) |  |  |  |  |  |  |
| O=C1O/C(=C\c2ccccc2C(F)(F)F)C(O)=C1c1ccc(-c2ccccc2)c(F)c1 [Example 107] |  |  |  | 224 to 228 °C | < 4.23 | 4 (≈ 9.38 µM) | 2 (≈ 4.69 µM) | 2 (≈ 4.69 µM) | 8 (≈ 18.8 µM) | 9.38 | 14.1 | 4.48 | 0.25 (≈ 0.586 µM) | 4.40 |  |  |  |  |  |
| O=C1O/C(=C\c2cccc(C(F)(F)F)c2)C(O)=C1c1cccc(-c2ccccc2)c1 [Example 108] |  |  |  | 210 to 212 °C | < 4.21 | 2 (≈ 4.9 µM) | 2 (≈ 4.9 µM) | 2 (≈ 4.9 µM) | 8 (≈ 19.6 µM) | 24.5 | 14.7 | 4.33 | 1 (≈ 2.45 µM) | 4.43 |  |  |  |  |  |
| N#Cc1ccc(C2=C(O)C(=Cc3ccc(-c4ccc(Cl)cc4)cc3)OC2=O)cc1 [R=H; R1=4-CN—C6H4; R2=4-(4′-Cl-biphenyl)] | + | 64.33 |  |  |  |  |  |  |  |  |  |  |  |  |  |  |  |  |  |
| N#Cc1ccc(C2=C(O)/C(=C/c3ccc(-c4ccc(C#N)cc4)cc3)OC2=O)cc1 [R=H; R1=4-CN—C6H4; R2=4-(4′CN-biphenyl)] | + | 88.60 |  |  |  |  |  |  |  |  |  |  |  |  |  |  |  |  |  |
| N#Cc1ccc(/C=C2\OC(=O)C(c3ccc(C#N)cc3)=C2O)cc1 [R=H; R1=4-CN—C6H4; R2=4-CN—C6H4] | + | 62.43 |  |  |  |  |  |  |  |  |  |  |  |  |  |  |  |  |  |
| N#Cc1ccc(C2=C(O)C(=Cc3ccc(Cl)cc3)OC2=O)cc1 [R=H; R1=4-CN—C6H4; R2=4-Cl—C6H4] | + | 90.20 |  |  |  |  |  |  |  |  |  |  |  |  |  |  |  |  |  |
| N#Cc1ccc(/C=C2\OC(=O)C(c3ccc(Cl)cc3)=C2O)cc1 [R=H; R1=4-Cl—C6H4; R2=4-CN—06H4] | + | 84.54 |  |  |  |  |  |  |  |  |  |  |  |  |  |  |  |  |  |
| O=C1O/C(=C\c2ccc(-c3ccccc3)cc2)C(O)=C1c1ccc(Cl)cc1 [R=H; R1=4-Cl—C6H4; R2=4-biphenyl] | + | 33.10 |  |  |  |  |  |  |  |  |  |  |  |  |  |  |  |  |  |
